The values that follow are results of earlier work, collected in patent US20090311237A1, “Combination therapy using a soluble hyaluronidase and a bisphosphonate” (priority 2008, published 2009).

The conditions of data set [1]: IV infusion; cited from earlier work.
For data set [2] the following is noted: rats; single IV administration of 1.6 mg/kg; cited from earlier work.

As to `O=P(O)(O)C(O)(Cn1ccnc1)P(=O)(O)O` [ZA, 1-hydroxy-2-(1H-imidazol-1-yl)ethylidene-1,1-bisphosphonic acid], the “patients with skin irritation at the injection site” value in data set [1] is 1%. Also, the injection site finding result in data set [2] is reported as “local irritation at the injection site”.
